Assays:
[1] = Net positive charge of the molecule; assay type: physicochemical; details: Table 1; effective charge at physiological pH
C-cell Ca^2+ receptor = molecular target: T1, C-cell Ca^2+ receptor (Rattus norvegicus, UniProt P48442); assay type: cell-based; details: spermine 10 mM, neomycin B 5 mM
T1 sequence (P48442 20-1079): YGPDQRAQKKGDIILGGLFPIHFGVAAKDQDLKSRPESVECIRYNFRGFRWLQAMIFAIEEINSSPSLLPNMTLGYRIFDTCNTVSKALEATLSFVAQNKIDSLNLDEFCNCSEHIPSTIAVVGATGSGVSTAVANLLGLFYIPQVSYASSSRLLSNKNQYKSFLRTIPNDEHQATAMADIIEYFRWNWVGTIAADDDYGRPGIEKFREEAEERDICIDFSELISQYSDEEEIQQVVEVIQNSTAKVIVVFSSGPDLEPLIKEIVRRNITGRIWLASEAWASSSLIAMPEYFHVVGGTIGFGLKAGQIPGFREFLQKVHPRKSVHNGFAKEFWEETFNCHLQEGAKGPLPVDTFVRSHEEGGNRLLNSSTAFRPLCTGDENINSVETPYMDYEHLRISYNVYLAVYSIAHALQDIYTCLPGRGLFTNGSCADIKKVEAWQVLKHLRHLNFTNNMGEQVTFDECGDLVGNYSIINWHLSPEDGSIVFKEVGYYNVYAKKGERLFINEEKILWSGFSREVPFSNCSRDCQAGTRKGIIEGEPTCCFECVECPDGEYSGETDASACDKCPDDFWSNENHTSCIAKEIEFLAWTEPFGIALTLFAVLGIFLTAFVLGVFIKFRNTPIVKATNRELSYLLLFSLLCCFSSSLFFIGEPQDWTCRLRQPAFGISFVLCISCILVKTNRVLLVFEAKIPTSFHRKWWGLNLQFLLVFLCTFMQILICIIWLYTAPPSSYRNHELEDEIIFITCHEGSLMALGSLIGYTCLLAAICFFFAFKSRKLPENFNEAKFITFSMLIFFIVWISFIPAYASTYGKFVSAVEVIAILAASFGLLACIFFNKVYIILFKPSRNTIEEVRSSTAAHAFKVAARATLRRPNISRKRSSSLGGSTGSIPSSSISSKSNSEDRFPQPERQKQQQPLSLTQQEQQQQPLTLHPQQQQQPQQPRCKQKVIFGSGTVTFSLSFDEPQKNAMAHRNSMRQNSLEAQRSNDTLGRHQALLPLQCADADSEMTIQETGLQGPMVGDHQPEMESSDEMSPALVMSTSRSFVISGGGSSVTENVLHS

Ca^2+ receptor = molecular target: T2, Ca^2+ receptor (Homo sapiens, UniProt P41180); experiment: Cl- current in Xenopus oocytes injected with human parathyroid poly(A)+ mRNA; assay type: cell-based
T2 construct: Oocytes were injected with poly(A)^+-enriched mRNA from human parathyroid tissue (hyperplastic glands from a case of secondary HPT); expressed in transfected cells; host or cells: Xenopus laevis oocytes injected with poly(A)+ mRNA from hyperplastic human parathyroid glands
T2 sequence (P41180 20-1078): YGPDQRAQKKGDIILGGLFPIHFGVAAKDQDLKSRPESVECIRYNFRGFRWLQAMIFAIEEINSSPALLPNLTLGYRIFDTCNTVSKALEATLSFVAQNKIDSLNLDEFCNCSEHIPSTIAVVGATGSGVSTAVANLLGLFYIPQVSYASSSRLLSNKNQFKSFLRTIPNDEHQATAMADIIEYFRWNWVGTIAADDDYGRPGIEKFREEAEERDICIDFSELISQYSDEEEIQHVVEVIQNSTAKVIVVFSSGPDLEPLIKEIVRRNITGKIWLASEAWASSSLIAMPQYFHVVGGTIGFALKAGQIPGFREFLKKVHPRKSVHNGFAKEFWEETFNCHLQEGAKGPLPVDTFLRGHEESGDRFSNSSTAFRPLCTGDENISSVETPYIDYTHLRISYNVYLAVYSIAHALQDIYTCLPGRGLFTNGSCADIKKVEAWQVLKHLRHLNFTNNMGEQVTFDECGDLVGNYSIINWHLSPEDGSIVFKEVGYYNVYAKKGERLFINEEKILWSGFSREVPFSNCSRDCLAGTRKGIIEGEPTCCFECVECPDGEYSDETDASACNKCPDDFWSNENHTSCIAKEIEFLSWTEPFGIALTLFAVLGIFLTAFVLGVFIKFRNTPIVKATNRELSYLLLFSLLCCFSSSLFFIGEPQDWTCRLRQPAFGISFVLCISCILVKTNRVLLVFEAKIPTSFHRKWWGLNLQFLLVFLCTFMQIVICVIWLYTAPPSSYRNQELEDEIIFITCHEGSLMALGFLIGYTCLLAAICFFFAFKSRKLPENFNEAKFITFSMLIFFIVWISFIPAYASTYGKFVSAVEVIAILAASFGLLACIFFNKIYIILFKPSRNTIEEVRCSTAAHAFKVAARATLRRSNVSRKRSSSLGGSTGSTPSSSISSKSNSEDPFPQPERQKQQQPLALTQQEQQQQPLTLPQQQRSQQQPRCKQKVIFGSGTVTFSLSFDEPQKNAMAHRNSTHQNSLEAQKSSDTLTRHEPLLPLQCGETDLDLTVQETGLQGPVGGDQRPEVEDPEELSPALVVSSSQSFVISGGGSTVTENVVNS

## NC[C@@H]1O[C@H](O[C@H]2[C@@H](O)[C@H](O[C@@H]3[C@@H](O)[C@H](N)C[C@H](N)[C@H]3O[C@H]3O[C@H](CN)[C@@H](O)[C@H](O)[C@H]3N)O[C@@H]2CO)[C@H](N)[C@@H](O)[C@@H]1O [neomycin B]
[1]
  Net (+) Charge: +6
C-cell Ca^2+ receptor
  effect on basal [Ca2+]i: without effect on basal [Ca^2+]i
Ca^2+ receptor; hexacyclen 135 µM, neomycin 100 µM, NPS 382 5 mM
  mobilization of intracellular Ca2+ in oocytes expressing the Ca2+ receptor: effective
Ca^2+ receptor; neomycin B 10 mM, five water-injected oocytes
  change in current in water-injected oocytes: failed to cause any change in the current
